Measured values from patent publication US20080221074A1, “Drug Screen and Treatment Method” (priority 2006, published 2008).

Legend:
[1] = test system: carrageenan-λ induced pleurisy; assay: carrageenan-λ induced lung (pleural cavity) inflammation; assay type: in vivo, CD1 male mice; settings: oral gavage; 1 mg and 0.1 mg (17α-ethynyl triol), 40 mg/kg (17β-amino compound)
[2] = test system: osteoblasts and osteocytes; assay: osteoblast and osteocyte apoptosis in vertebral bone of ovariectomized mice (TUNEL); assay type: in vivo, Swiss Webster mice
Description: The degree of apoptosis of osteoblasts and osteocytes in murine vertebral bone as a function of estrogen deficiency was examined. Swiss Webster mice (four months old) were ovariectomized. Twenty-eight days later, the animals were sacrificed, vertebrae were isolated, fixed and embedded, and then undecalcified in methacrylate.

C#C[C@]1(O)CC[C@H]2[C@@H]3[C@@H](O)C=C4C[C@@H](O)CC[C@]4(C)[C@H]3CC[C@@]21C [17α-ethynylandrost-5-ene-3β,7β,17β-triol]
anti-inflammation activity compared to vehicle controls [1]: statistically significant anti-inflammation activity
osteoblast and osteocyte apoptosis [2]: reduce apoptosis
